# Measured values as given in ChEMBL document CHEMBL4177728, “Protective effects of 6-ureido/thioureido-2,4,5-trimethylpyridin-3-ols against 4-hydroxynonenal-induced cell death in adult retinal pigment epithelial-19 cells” (2018).
# Tests used:
# [1] = Antioxidant activity assessed as DPPH radical scavenging activity at 10 uM by spectrphotomery; format: functional
# [2] = molecular target: T1, NADPH oxidase 4 (Homo sapiens) (UniProt Q9NPH5); experiment: (§1) Inhibition of NOX4 in human ARPE19 cells assessed as protection against 4-HNE-induced cell death by measuring cell viability recovery at 10 uM incubated for 24 hrs by MTT assay; format: cell-based
# T1 sequence (whole entry): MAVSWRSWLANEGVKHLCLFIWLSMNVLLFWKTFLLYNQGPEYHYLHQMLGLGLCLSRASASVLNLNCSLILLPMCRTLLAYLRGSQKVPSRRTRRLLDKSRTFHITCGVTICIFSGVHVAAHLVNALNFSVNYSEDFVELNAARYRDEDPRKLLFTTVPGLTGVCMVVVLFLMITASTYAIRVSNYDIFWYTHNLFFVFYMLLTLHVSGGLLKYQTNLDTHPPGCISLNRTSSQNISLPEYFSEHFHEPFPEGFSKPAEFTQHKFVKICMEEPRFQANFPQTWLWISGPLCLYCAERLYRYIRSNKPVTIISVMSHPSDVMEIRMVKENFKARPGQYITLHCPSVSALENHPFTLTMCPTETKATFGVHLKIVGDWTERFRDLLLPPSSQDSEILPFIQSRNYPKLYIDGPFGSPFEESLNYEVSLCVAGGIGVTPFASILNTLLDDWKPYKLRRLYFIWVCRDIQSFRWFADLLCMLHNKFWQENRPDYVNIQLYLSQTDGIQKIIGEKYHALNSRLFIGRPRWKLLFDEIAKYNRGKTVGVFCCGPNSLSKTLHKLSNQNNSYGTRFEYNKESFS
# [3] = molecular target: T1, NADPH oxidase 4 (Homo sapiens); experiment: (§2) Inhibition of NOX4 in human ARPE19 cells assessed as suppression of 4-HNE-induced superoxide production at 10 uM pre-incubated for 1 hr before 4-HNE addition for 1 hr by lucigenin chemiluminescence assay; format: cell-based
# ARPE-19 [4] = experiment: Suppression of 4-HNE-induced apoptosis in human ARPE19 cells assessed as necrosis cells level at 20 uM incubated for 24 hrs by FITC Annexin V and propidium iodide staining based flow cytometry (reference value: 0.342%); format: functional
# ARPE-19 [5] = experiment: Suppression of 4-HNE-induced apoptosis in human ARPE19 cells assessed as viable cells level at 5 uM incubated for 24 hrs by FITC Annexin V and propidium iodide staining based flow cytometry (reference value: 59.1%); format: functional
# ARPE-19 [6] = experiment: Suppression of 4-HNE-induced apoptosis in human ARPE19 cells assessed as necrosis cells level at 5 uM incubated for 24 hrs by FITC Annexin V and propidium iodide staining based flow cytometry (reference value: 0.342%); format: functional
# ARPE-19 [7] = experiment: Suppression of 4-HNE-induced apoptosis in human ARPE19 cells assessed as late apoptosis cells level at 10 uM incubated for 24 hrs by FITC Annexin V and propidium iodide staining based flow cytometry (reference value: 23%); format: functional
# ARPE-19 [8] = experiment: Suppression of 4-HNE-induced apoptosis in human ARPE19 cells assessed as necrosis cells level at 10 uM incubated for 24 hrs by FITC Annexin V and propidium iodide staining based flow cytometry (reference value: 0.342%); format: functional
# ARPE-19 [9] = experiment: Suppression of 4-HNE-induced apoptosis in human ARPE19 cells assessed as late apoptosis cells level at 5 uM incubated for 24 hrs by FITC Annexin V and propidium iodide staining based flow cytometry (reference value: 23%); format: functional
# ARPE-19 [10] = experiment: Suppression of 4-HNE-induced apoptosis in human ARPE19 cells assessed as early apoptosis cells level at 5 uM incubated for 24 hrs by FITC Annexin V and propidium iodide staining based flow cytometry (reference value: 17.6%); format: functional
# ARPE-19 [11] = experiment: Suppression of 4-HNE-induced apoptosis in human ARPE19 cells assessed as viable cells level at 10 uM incubated for 24 hrs by FITC Annexin V and propidium iodide staining based flow cytometry (reference value: 59.1%); format: functional
# ARPE-19 [12] = experiment: Suppression of 4-HNE-induced apoptosis in human ARPE19 cells assessed as viable cells level at 20 uM incubated for 24 hrs by FITC Annexin V and propidium iodide staining based flow cytometry (reference value: 59.1%); format: functional
# ARPE-19 [13] = experiment: Suppression of 4-HNE-induced apoptosis in human ARPE19 cells assessed as early apoptosis cells level at 10 uM incubated for 24 hrs by FITC Annexin V and propidium iodide staining based flow cytometry (reference value: 17.6%); format: functional
# ARPE-19 [14] = experiment: Suppression of 4-HNE-induced apoptosis in human ARPE19 cells assessed as late apoptosis cells level at 20 uM incubated for 24 hrs by FITC Annexin V and propidium iodide staining based flow cytometry (reference value: 23%); format: functional
# ARPE-19 [15] = experiment: Suppression of 4-HNE-induced apoptosis in human ARPE19 cells assessed as early apoptosis cells level at 20 uM incubated for 24 hrs by FITC Annexin V and propidium iodide staining based flow cytometry (reference value: 17.6%); format: functional
# [16] = molecular target: NADPH oxidase 4 (Homo sapiens) (UniProt Q9NPH5); experiment: as §1; format: cell-based; remark: listed apart in the source
# [17] = molecular target: NADPH oxidase 4 (Homo sapiens) (UniProt Q9NPH5); experiment: as §2; format: cell-based; remark: listed apart in the source
# [18] = molecular target: T1, NADPH oxidase 4 (Homo sapiens); experiment: Inhibition of NOX4 in human ARPE19 cells assessed as protection against 4-HNE-induced cell death by measuring cell viability recovery incubated for 24 hrs by MTT assay; format: cell-based
Molecule,Activity [1],Activity [2],inhibition [3],other results
COc1ccc(NC(=O)Nc2nc(C)c(O)c(C)c2C)cc1,7.4%,10.8%,5.8%,–
c1ccc(Cn2nnc3c(Sc4nc5ccccc5o4)ncnc32)cc1,6.9%,79.4%,78.7%,Activity (ARPE-19 [4]): 0.145%; Activity (ARPE-19 [5]): 80.4%; Activity (ARPE-19 [6]): 0.25%; Activity (ARPE-19 [7]): 4.42%; Activity (ARPE-19 [8]): 0.254%; Activity (ARPE-19 [9]): 7.66%; Activity (ARPE-19 [10]): 11.8%; Activity (ARPE-19 [11]): 89.8%; Activity (ARPE-19 [12]): 95.2%; Activity (ARPE-19 [13]): 5.62%; Activity (ARPE-19 [14]): 1.81%; Activity (ARPE-19 [15]): 2.87%
Cc1nc(NC(=O)Nc2ccc([N+](=O)[O-])cc2)c(C)c(C)c1O,5.2%,13.9%,8.3%,–
Cc1cccc(C(C)(C)C)c1NC(=O)Nc1nc(C)c(O)c(C)c1C,3.3%,12.8%,8.9%,–
O=C1O[C@H]([C@@H](O)CO)C(O)=C1O,10.2%,8.2%,3.4%,–
CCNC(=S)Nc1nc(C)c(O)c(C)c1C,13.3%,44.9%,36.7%,–
Cc1ccc(S(=O)(=O)NC(=O)Nc2nc(C)c(O)c(C)c2C)cc1,5.7%,32.5%,28.6%,–
CCCNC(=O)Nc1nc(C)c(O)c(C)c1C,5.5%,12.5%,9.4%,–
Cc1nc(NC(=O)Nc2ccc(OC(F)(F)F)cc2)c(C)c(C)c1O,6.1%,58.4%,51.1%,–
Cc1nc(NC(=O)Nc2ccc(Cl)cc2)c(C)c(C)c1O,6.2%,43.6%,30.8%,–
Cc1nc(NC(=O)Nc2ccc(C(C)C)cc2)c(C)c(C)c1O,4.2%,-5.1%,-1.3%,–
CCCCCCNC(=S)Nc1nc(C)c(O)c(C)c1C,16.5%,22.8%,17.9%,–
Cc1ccc(NC(=S)Nc2nc(C)c(O)c(C)c2C)cc1,6.9%,54%,41.3%,–
Cc1nc(NC(=O)NC(=O)c2ccccc2)c(C)c(C)c1O,6.7%,1.5%,8.8%,–
COc1ccc(NC(=S)Nc2nc(C)c(O)c(C)c2C)cc1,4.7%,23.2%,17.7%,–
Cc1nc(NC(=O)Nc2cccc3ccccc23)c(C)c(C)c1O,6.3%,7.3%,2.4%,–
Cc1nc(NC(=S)NC2CCCCC2)c(C)c(C)c1O,7.1%,62.2%,61.9%,–
Cc1nc(NC(=O)NCc2ccccc2)c(C)c(C)c1O,6%,10.5%,4.6%,–

Molecule,Activity [1],Activity [2],inhibition [3],other results
Cc1nc(NC(=S)NC(=O)c2ccccc2)c(C)c(C)c1O,4.9%,63.1%,68.7%,–
VITAMIN E,10.2%,–,–,Activity [16]: 9.8%; inhibition [17]: 3.9%
Cc1nc(NC(=S)Nc2cccc(C(F)(F)F)c2)c(C)c(C)c1O,7.6%,29.6%,20.1%,–
Cc1nc(NC(=O)Nc2ccccc2)c(C)c(C)c1O,5.8%,8.9%,7.1%,–
Cc1nc(NC(=S)Nc2ccc(Br)cc2)c(C)c(C)c1O,7.4%,33.5%,22.8%,–
Cc1nc(NC(=S)Nc2ccc(C(F)(F)F)cc2)c(C)c(C)c1O,6.7%,40.4%,30.5%,–
Cc1ccc(NC(=O)Nc2nc(C)c(O)c(C)c2C)cc1,3.4%,5.3%,6.2%,–
Cc1nc(NC(=O)Nc2ccc(Br)cc2)c(C)c(C)c1O,4%,7.3%,0.9%,–
Cc1nc(NC(=S)Nc2ccccc2)c(C)c(C)c1O,5.6%,8.9%,2.3%,–
CCCCCCCCNC(=S)Nc1nc(C)c(O)c(C)c1C,14.6%,45.9%,40.7%,–
Cc1nc(NC(=S)Nc2ccc(Cl)c(Cl)c2)c(C)c(C)c1O,6.6%,24.9%,19%,–
Cc1nc(NC(=O)Nc2ccc(C(F)(F)F)cc2)c(C)c(C)c1O,5.9%,44.2%,41.3%,–
CCCCNC(=S)Nc1nc(C)c(O)c(C)c1C,5.9%,85.1%,79.5%,Activity (ARPE-19 [4]): 0.067%; Activity (ARPE-19 [5]): 88.6%; Activity (ARPE-19 [6]): 0.335%; Activity (ARPE-19 [7]): 3.38%; Activity (ARPE-19 [8]): 0.134%; Activity (ARPE-19 [9]): 4.24%; Activity (ARPE-19 [10]): 6.84%; Activity (ARPE-19 [11]): 93.4%; Activity (ARPE-19 [12]): 99.7%; Activity (ARPE-19 [13]): 3.06%; inhibition [18]: Dose-dependent effect; Activity (ARPE-19 [14]): 0.079%; Activity (ARPE-19 [15]): 0.112%
Cc1nc(NC(=S)NC(C)C)c(C)c(C)c1O,5.5%,14.7%,13.9%,–
Cc1nc(NC(=S)Nc2ccc([N+](=O)[O-])cc2)c(C)c(C)c1O,5.5%,77.7%,71.8%,inhibition [18]: Dose-dependent effect
Cc1nc(NC(=O)Nc2ccc(F)cc2)c(C)c(C)c1O,7.4%,6.2%,6.9%,–
Cc1nc(NC(=S)Nc2ccc(Cl)cc2)c(C)c(C)c1O,6.5%,12.8%,13%,–
